Source: patent US9776972B2, “Pyrazole derivatives as arginine methyltransferase inhibitors and uses thereof” (priority 2013, dated 2017)
Like-named read-outs stand apart in the source and are kept apart here.

Key:
[1] = system: mono-methyl arginine in RKO cells; assay: RKO Methylation Assay, In Cell Western (ICW) for mono-methyl arginine and DNA content; assay type: cell-based; details: Homo sapiens, RKO, 72 h
Procedure, shortened: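 After fixation, mono-methyl arginine and DNA (DRAQ5) were measured by infrared In-Cell Western imaging at 700/800 nm in RKO cells exposed to compounds for 72 hours. Percent activation used DMSO wells as minimum and 20 μM reference compound as maximum; EC30 curves fitted on triplicate wells.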

[2] = target: human PRMT8 (Homo sapiens, UniProt Q9NR22); assay: PRMT8 Biochemical Assay (3H-SAM Flashplate, peptide substrate); details: single experiment or average of multiple experiments
Chain of human PRMT8 (Q9NR22 whole entry, the tested form may be a part): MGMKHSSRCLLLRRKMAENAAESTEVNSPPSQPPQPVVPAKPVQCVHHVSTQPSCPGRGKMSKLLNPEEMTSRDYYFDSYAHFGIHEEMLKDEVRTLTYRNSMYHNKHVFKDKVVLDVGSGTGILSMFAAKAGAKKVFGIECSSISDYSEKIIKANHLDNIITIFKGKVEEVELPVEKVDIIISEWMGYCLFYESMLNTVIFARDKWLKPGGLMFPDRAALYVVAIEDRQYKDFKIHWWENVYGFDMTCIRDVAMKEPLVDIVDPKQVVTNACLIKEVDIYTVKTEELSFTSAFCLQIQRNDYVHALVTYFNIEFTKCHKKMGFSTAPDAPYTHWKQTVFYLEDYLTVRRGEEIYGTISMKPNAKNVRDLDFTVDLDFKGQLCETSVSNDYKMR
Procedure, shortened: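 Methylation of a biotin-tagged histone H4 peptide (residues 31-45) by recombinant PRMT8 was measured as 3H transfer from 3H-SAM, after a 30 min room-temperature compound preincubation in Bicine buffer pH 7.6. Reactions were quenched with unlabelled SAM to 400 uM final, then bound counts were read by streptavidin Flashplate. IC50 came from a Hill fit of % inhibition relative to max and SAH min controls.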

[3] = RKO cells, 72 hours, mono-methyl arginine, percent activation, single experiment or average of multiple experiments, read-out: EC30 (In Cell Western data, Numerical)
[4] = read-out: EC30 (In Cell Western data, Numerical, μM)

Row | SMILES | EC30 [1, 3] | IC50 [2] | EC30 [1, 4]
1 | CNCCN(C)Cc1cn(C2CC2)nc1-c1ccc(F)cc1 [Compound 13] | > 20 µM |  | 
2 | CNCCN(C)Cc1cnn(C2CC2)c1-c1ccc(F)cc1 [Compound 14] | 3.35 µM | 1.38 µM | 
3 | CNCCN(C)Cc1cn(C(C)C)nc1-c1ccc(F)cc1 [Compound 15] | > 20 µM |  | 
4 | CNCCN(C)Cc1cnn(C(C)C)c1-c1ccc(F)cc1 [Compound 16] |  |  | > 20 µM
5 | CNCCN(C)Cc1cn[nH]c1-c1ccc(C#N)cc1 [Compound 17] |  | 0.0891 µM | > 20 µM
6 | CNCCN(C)Cc1cn[nH]c1-c1cc(F)cc(F)c1 [Compound 18] |  | 0.483 µM | 
7 | CN(CCN)Cc1n[nH]cc1-c1ccc(C2CCOCC2)cc1 [Compound 145] | 1.95 µM | 0.167 µM | 
8 | COc1ccc(-c2n[nH]cc2CN(C)CCN)c(Cl)c1 [Compound 146] | 7.16 µM | 1.12 µM | 
9 | CN(CCN)Cc1c[nH]nc1-c1cc(C#N)ccc1Cl [Compound 147] | > 20 µM |  | 
10 | CN(CCN)Cc1c[nH]nc1-c1ccc(C(F)(F)F)cc1F [Compound 148] | 7.3 µM | 0.809 µM | 
11 | CN(CCN)Cc1c[nH]nc1-c1cccc(N(C)C)c1 [Compound 149] | 4.32 µM | 0.91 µM | 
12 | CCOC(=O)c1cccc(-c2n[nH]cc2CN(C)CCN)c1 [Compound 150] | 6.66 µM | 0.566 µM | 
13 | COc1cc(F)ccc1-c1n[nH]cc1CN(C)CCN [Compound 151] | 9.73 µM | 1.37 µM | 
14 | Cc1cc(F)ccc1-c1n[nH]cc1CN(C)CCN [Compound 152] | 5.78 µM | 0.983 µM | 
15 | COc1ccc(-c2n[nH]cc2CN(C)CCN)cc1 [Compound 153] | 1.39 µM | 0.132 µM | 
16 | COc1ccc(-c2n[nH]cc2CN(C)CCN)c(C(F)(F)F)c1 [Compound 154] | > 20 µM | 6.17 µM | 
17 | COc1ccc(-c2n[nH]cc2CN(C)CCN)c(C)c1 [Compound 155] | 10.6 µM | 0.977 µM | 
18 | CN(CCN)Cc1c[nH]nc1-c1cc(Cl)ccc1F [Compound 156] | 9.56 µM | 1.71 µM | 
19 | COc1ccc(Cl)cc1-c1n[nH]cc1CN(C)CCN [Compound 157] | > 20 µM | 5.82 µM | 
20 | Cc1ccc(C#N)cc1-c1n[nH]cc1CN(C)CCN [Compound 158] | > 20 µM |  | 
21 | Cc1ccc(F)cc1-c1n[nH]cc1CN(C)CCN [Compound 159] | 8.56 µM | 0.879 µM | 
22 | COc1ccc(F)cc1-c1n[nH]cc1CN(C)CCN [Compound 160] | 17.7 µM | 3.01 µM | 
23 | Cc1ccccc1-c1n[nH]cc1CN(C)CCN [Compound 161] | 14.9 µM | 2.1 µM | 
24 | Cc1ccc(-c2n[nH]cc2CN(C)CCN)cc1 [Compound 162] | 1.34 µM | 0.273 µM | 
25 | CCN(C)C(=O)c1ccc(-c2n[nH]cc2CN(C)CCN)cc1 [Compound 163] | > 20 µM | 1.43 µM | 
26 | CC(C)CN(C)C(=O)c1ccc(-c2n[nH]cc2CN(C)CCN)cc1 [Compound 164] | 18.5 µM | 2.18 µM | 

Row | SMILES | EC30 [1, 3] | IC50 [2] | EC30 [1, 4]
27 | CCOc1ccc(-c2n[nH]cc2CN(C)CCN)cc1 [Compound 166] | 0.434 µM | 0.191 µM | 
28 | COCCOc1ccc(-c2n[nH]cc2CN(C)CCN)cc1 [Compound 167] | 0.845 µM | 0.284 µM | 
29 | Cc1[nH]nc(-c2ccc(F)cc2)c1CN(C)CCN [Compound 169] | > 20 µM | 2.99 µM | 
30 | CC(C)Cc1ccc(-c2c[nH]nc2CN(C)CCN)cc1 [Compound 170] | 1.39 µM | 0.16 µM | 
31 | NCCN(CCO)Cc1c[nH]nc1-c1ccc(F)cc1 [Compound 171] | > 20 µM | 2.63 µM | 
32 | CN(CCN)Cc1c[nH]nc1-c1ccc(OCCN2CCOCC2)cc1 [Compound 172] | > 20 µM | 3.26 µM | 
33 | CN(CCN)Cc1c[nH]nc1-c1ccc2c(c1)NC(=O)CO2 [Compound 173] | > 20 µM | 3.08 µM | 
34 | CNCCN(C)Cc1c[nH]nc1-c1ccc(C(F)(F)F)cc1 [Compound 174] | 0.26 µM | 0.228 µM | 
35 | CNCCN(C)Cc1c[nH]nc1-c1ccc(OC2CCOCC2)cc1 [Compound 175] | 0.174 µM |  | 
36 | CC(C)Oc1ccc(-c2nn(C)cc2CN(C)CCN)cc1 [Compound 176] | 0.882 µM |  | 
37 | CC(C)Oc1ccc(-c2c(CN(C)CCN)cnn2C)cc1 [Compound 177] | 0.295 µM |  | 
38 | CN(CCN)Cc1c[nH]nc1-c1ccc(OC2CCOCC2)cc1 [Compound 178] | 0.954 µM |  | 
39 | COCCCOc1ccc(-c2n[nH]cc2CN(C)CCN)cc1 [Compound 179] | 0.03 µM |  | 
40 | CNCCN(C)Cc1c[nH]nc1-c1ccc(OC(C)C)c(F)c1 [Compound 181] | 0.046 µM |  | 
41 | CNCCN(C)Cc1c[nH]nc1-c1ccc(Cl)c(F)c1 [Compound 182] | 0.179 µM | 0.271 µM | 
42 | CN(CCN(C)C1CC1)Cc1c[nH]nc1-c1ccc(C#N)cc1 [Compound 184] | 2.41 µM | 3.03 µM | 
43 | CN(CCN1CCC1)Cc1c[nH]nc1-c1ccc(C#N)cc1 [Compound 185] | > 20 µM | 4.37 µM | 
44 | CC(C)Oc1cccc(-c2n[nH]cc2CN(C)CCN)c1 [Compound 187] | 7.07 µM | 1.7 µM | 
45 | CC(C)Oc1cc(-c2n[nH]cc2CN(C)CCN)ccc1F [Compound 188] | 12.3 µM | 2.89 µM | 
46 | CCC(=O)N1CCN(c2ccc(-c3n[nH]cc3CN(C)CCN)cc2)CC1 [Compound 189] | > 20 µM | 2.99 µM | 
47 | CC(C)CN1C(=O)COc2ccc(-c3n[nH]cc3CN(C)CCN)cc21 [Compound 191] | > 20 µM | 4.11 µM | 
48 | CN(CCN)Cc1c[nH]nc1-c1ccc2c(c1)OCC(=O)N2C [Compound 192] | > 20 µM | 2.01 µM | 
49 | CC(C)CN1C(=O)COc2cc(-c3n[nH]cc3CN(C)CCN)ccc21 [Compound 193] | 9.72 µM | 0.845 µM | 
50 | CN(CCN)Cc1c[nH]nc1-c1ccc(OCCO)cc1 [Compound 194] | 17 µM | 0.374 µM | 
51 | CN(CCN)Cc1c[nH]nc1-c1ccc(OCCCO)cc1 [Compound 195] | 7.18 µM | 0.402 µM | 
52 | CN(CCN)Cc1c[nH]nc1-c1ccc2c(c1)N(C)C(=O)CO2 [Compound 196] | > 20 µM | 2.58 µM | 

Row | SMILES | EC30 [1, 3] | IC50 [2] | EC30 [1, 4]
53 | CCNC(=O)c1cccc(-c2n[nH]cc2CN(C)CCN)c1 [Compound 197] | > 20 µM | 2.1 µM | 
54 | CCN(C)C(=O)c1cccc(-c2n[nH]cc2CN(C)CCN)c1 [Compound 198] | > 20 µM |  | 
55 | Cc1cc(-c2n[nH]cc2CN(C)CCN)cc(C)c1OC(C)C [Compound 199, N^1-((3-(4-isopropoxy-3,5-dimethylphenyl)-1H-pyrazol-4-yl)methyl)-N^1-methylethane-1,2-diamine] | 2.82 µM | 0.459 µM | 
56 | CN(CCN)Cc1c[nH]nc1-c1ccc(Oc2ccccc2)c(C#N)c1 [Compound 202] | 0.941 µM | 0.187 µM | 
57 | CN(CCN)Cc1n[nH]cc1-c1ccc(Oc2ccccc2)cc1 [Compound 203] | 1.72 µM | 0.185 µM | 
58 | CNCCN(C)Cc1n[nH]cc1-c1ccc(Oc2ccccc2)cc1 [Compound 204] | 0.801 µM | 0.0693 µM | 
59 | CN(CCN)Cc1c[nH]nc1-c1ccc(Oc2cccc(F)c2)cc1 [Compound 205] | 1.69 µM | 0.286 µM | 
60 | CNCCN(C)Cc1cn(C)nc1-c1ccc(OC(C)C)c(Cl)c1 [Compound 206] |  | 0.349 µM | 1.16 µM
61 | CNCCN(C)Cc1cn(C)nc1-c1ccc(Oc2ccccc2)cc1 [Compound 207] | 2.31 µM | 0.627 µM | 
62 | CNCCN(C)Cc1cnn(C)c1-c1ccc(Oc2ccccc2)cc1 [Compound 208] | 0.696 µM | 0.279 µM | 
63 | CNCCN(C)Cc1c[nH]nc1-c1ccc(OCCCOC)cc1 [Compound 209] | 0.557 µM | 0.483 µM | 
64 | CNCCN(C)Cc1n[nH]cc1-c1ccc(OC(C)C)c(F)c1 [Compound 210] | 0.268 µM | 0.182 µM | 
65 | CC(C)Oc1ccc(-c2c[nH]nc2CN(C)CCN)cc1Cl [Compound 211] | 0.523 µM | 0.117 µM | 
66 | CNCCN(C)Cc1n[nH]cc1-c1ccc(OC(C)C)c(Cl)c1 [Compound 212] | 0.238 µM | 0.0403 µM | 
67 | CCn1cc(CN(C)CCNC)c(-c2ccc(OC(C)C)cc2)n1 [Compound 213] | 0.708 µM |  | 
68 | CNCCN(C)Cc1cn(C2CCCC2)nc1-c1ccc(OC(C)C)cc1 [Compound 214] | 2.25 µM |  | 
69 | CNCCN(C)Cc1cn(C2CCOC2)nc1-c1ccc(OC(C)C)cc1 (stereo not drawn) [Compound 215] | 7.47 µM |  | 
70 | CNCCN(C)Cc1cnn(C2CCOC2)c1-c1ccc(OC(C)C)cc1 (stereo not drawn) [Compound 216] | 0.726 µM |  | 
71 | CNCCN(C)Cc1cn(Cc2ccccc2)nc1-c1ccc(OC(C)C)cc1 [Compound 217] | 2.15 µM |  | 
72 | C=CCn1cc(CN(C)CCNC)c(-c2ccc(OC(C)C)cc2)n1 [Compound 218] | 5.74 µM |  | 
73 | C=CCn1ncc(CN(C)CCNC)c1-c1ccc(OC(C)C)cc1 [Compound 219] | 0.919 µM |  | 
74 | CNCCN(C)Cc1c[nH]nc1-c1ccc(Oc2ccccc2)c(C#N)c1 [Compound 221] | 0.413 µM | 0.328 µM | 
75 | CN(CCN)Cc1c(-c2ccc(C#N)cc2)ncn1C [Compound 222] | > 20 µM | 8.88 µM | 
76 | CN(CCN)Cc1c[nH]nc1-c1ccc(Oc2ccccc2)c(F)c1 [Compound 224, N^1-((3-(3-fluoro-4-phenoxyphenyl)-1H-pyrazol-4-yl)methyl)-N^1-methylethane-1,2-diamine] |  | 0.346 µM | 0.27 µM
